# Source: ChEMBL document CHEMBL4725351, “Cyclic Derivative of Host-Defense Peptide IDR-1018 Improves Proteolytic Stability, Suppresses Inflammation, and Enhances In Vivo Activity” (J Med Chem, 2020)
# Activity calls are given as the source filed them. The calls are words filed in the database; no cut-off is given here. Where a SMILES comes first, the peptide text is derived from it. Bridges are numbered along the chain shown (N, C = ends).
# Tests used:
# Pseudomonas aeruginosa [1] = test: Antibacterial activity against Pseudomonas aeruginosa PA14 measured after overnight incubation by microtitre plate based spectrophotometric method; assay type: functional
# Acinetobacter baumannii [2] = test: Antibacterial activity against Acinetobacter baumannii 5015 measured after overnight incubation by microtitre plate based spectrophotometric method; assay type: functional
# PBMC [3] = test: Immunomodulatory activity in human PBMC assessed as increase in IL-1RA production at 25 ug/ml measured after overnight incubation by ELISA; assay type: functional, tissue-based; conditions: dose 25.0 µg/ml
# Klebsiella pneumoniae [4] = test: Antibacterial activity against Klebsiella pneumoniae ATTC 13883 measured after overnight incubation by microtitre plate based spectrophotometric method; assay type: functional
# Acinetobacter baumannii [5] = test: Antibiofilm activity against 24 hrs preformed Acinetobacter baumannii 17918 biofilm assessed as reduction in biofilm viability at 7.2 to 30.3 uM by TTC assay relative to control; assay type: functional; conditions: dose microM 7.2-30.3
# Acinetobacter baumannii [6] = test: Antibacterial activity against Acinetobacter baumannii 17918 measured after overnight incubation by microtitre plate based spectrophotometric method; assay type: functional
# Escherichia coli [7] = test: Antibiofilm activity against 24 hrs preformed Escherichia coli ATTC 489 biofilm assessed as reduction in biofilm viability at 7.2 to 30.3 uM by TTC assay relative to control; assay type: functional; conditions: dose microM 7.2-30.3
# Pseudomonas aeruginosa [8] = test: Antibiofilm activity against Pseudomonas aeruginosa PA14 incubated for 24 hrs under shaking condition by turbidometric method; assay type: functional
# Klebsiella pneumoniae [9] = test: Antibiofilm activity against 24 hrs preformed Klebsiella pneumoniae ATTC 13883 biofilm assessed as reduction in biofilm viability at 7.2 to 30.3 uM by TTC assay relative to control; assay type: functional; conditions: dose microM 7.2-30.3
# [10] = Immunomodulatory activity in human PBMC assessed as increase in LPS-induced MCP1 production at 25 ug/ml measured after overnight incubation by ELISA; assay type: functional; conditions: dose 25 µg/ml
# [11] = Aggregation property of the compound in 5% dextrose at 1 mg/ml by turbidimetric method; assay type: physicochemical
# Staphylococcus aureus [12] = test: Antibacterial activity against methicillin-resistant Staphylococcus aureus USA300 LAC measured after overnight incubation by microtitre plate based spectrophotometric method; assay type: functional
# [13] = Toxicity in CD1 mouse assessed as redness under the skin at 10 mg/kg, sc measured after 16 hrs; assay type: organism-based; conditions: in vivo
# Escherichia coli [14] = test: Antibacterial activity against Escherichia coli ATTC 489 measured after overnight incubation by microtitre plate based spectrophotometric method; assay type: functional
# Escherichia coli [15] = test: Antibiofilm activity against Escherichia coli ATTC 489 incubated for 24 hrs under shaking condition by turbidometric method; assay type: functional
# PBMC [16] = test: Immunomodulatory activity in human PBMC assessed as increase in MCP1 production at 25 ug/ml measured after overnight incubation by ELISA; assay type: functional, tissue-based; conditions: dose 25.0 µg/ml
# Trypsin = Trypsin (Homo sapiens, UniProt P07477+P07478+P35030); test: Stability of the compound in pH 8.2 ammonium bicarbonate buffer assessed as trypsin (unknown origin)-mediated drug degradation at 20 ug/ml measured after 120 mins by RP-HPLC analysis; assay type: ADME, protein assay; conditions: trypsin in ammonium bicarbonate buffer, pH 8.2, at 20 µg/mL, read-out: Drug degradation
# Klebsiella pneumoniae [17] = test: Antibiofilm activity against Klebsiella pneumoniae ATTC 13883 incubated for 24 hrs under shaking condition by turbidometric method; assay type: functional
# Pseudomonas aeruginosa [18] = test: Antibacterial activity against Pseudomonas aeruginosa PAO1 measured after overnight incubation by microtitre plate based spectrophotometric method; assay type: functional
# [19] = Immunomodulatory activity in human PBMC assessed as increase in LPS-induced IL10 production at 25 ug/ml measured after overnight incubation by ELISA; assay type: functional; conditions: dose 25 µg/ml
# [20] = Cytotoxicity against human PBMC assessed as reduction in cell viability at 100 ug/ml measured after 24 hrs by LDH assay; assay type: tissue-based; conditions: dose 100 µg/ml
# [21] = Aggregation property of the compound in sodium citrate solution at 10 mM by turbidimetric method; assay type: physicochemical; conditions: 10000 µM
# Staphylococcus aureus [22] = test: Antibiofilm activity against methicillin-resistant Staphylococcus aureus SAP0017 assessed as reduction in biofilm biomass incubated overnight by crystal violet staining assay; assay type: functional
# Staphylococcus aureus [23] = test: Antibacterial activity against methicillin-resistant Staphylococcus aureus SAP0017 measured after overnight incubation by microtitre plate based spectrophotometric method; assay type: functional
# Acinetobacter baumannii [24] = test: Antibiofilm activity against 24 hrs preformed Acinetobacter baumannii 5015 biofilm assessed as reduction in biofilm viability at 7.2 to 30.3 uM by TTC assay relative to control; assay type: functional; conditions: dose microM 7.2-30.3
# [25] = Immunomodulatory activity in human PBMC assessed as increase in LPS-induced IL1RA production at 25 ug/ml measured after overnight incubation by ELISA; assay type: functional; conditions: dose 25 µg/ml
# Pseudomonas aeruginosa [26] = test: Antibiofilm activity against Pseudomonas aeruginosa PAO1 incubated for 24 hrs under shaking condition by turbidometric method; assay type: functional
# [27] = Aggregation property of the compound in sodium phosphate solution at 10 mM by turbidimetric method; assay type: physicochemical; conditions: 10000 µM
# [28] = Aggregation property of the compound in sodium nitrate solution at 10 mM by turbidimetric method; assay type: physicochemical; conditions: 10000 µM
# [29] = Aggregation property of the compound in saline at 1 mg/ml by turbidimetric method; assay type: physicochemical; conditions: buffer
# Staphylococcus aureus [30] = test: Antibiofilm activity against methicillin-resistant Staphylococcus aureus USA300 LAC incubated for 24 hrs under shaking condition by turbidometric method; assay type: functional
# Acinetobacter baumannii [31] = test: Antibiofilm activity against Acinetobacter baumannii 17918 incubated for 24 hrs under shaking condition by turbidometric method; assay type: functional
# Staphylococcus aureus [32] = test: Antibiofilm activity against methicillin-resistant Staphylococcus aureus SAP0017 incubated for 24 hrs under shaking condition by turbidometric method; assay type: functional
# Staphylococcus aureus [33] = test: Antibacterial activity against Staphylococcus aureus USA300 LAC infected in CD1 mouse assessed as reduction in bacterial load at 7.5 mg/kg, sc administered at infection site measured after 3 days by colony counting method relative to control; assay type: functional; conditions: time 3 day
# Staphylococcus aureus [34] = test: Antibiofilm activity against methicillin-resistant Staphylococcus aureus USA300 LAC assessed as reduction in biofilm biomass measured after overnight incubation by crystal violet staining assay; assay type: functional
# Acinetobacter baumannii [35] = test: Antibiofilm activity against Acinetobacter baumannii 5015 incubated for 24 hrs under shaking condition by turbidometric method; assay type: functional
# PBMC [36] = test: Immunomodulatory activity in human PBMC assessed as change in TNFalpha production at 25 ug/ml measured after overnight incubation by ELISA; assay type: functional, tissue-based; conditions: dose 25.0 µg/ml
# Staphylococcus aureus [37] = test: Antibacterial activity against Staphylococcus aureus USA300 LAC infected in CD1 mouse assessed as reduction in dermonecrosis at 7.5 mg/kg, sc administered at infection site measured after 3 days by caliper method relative to control; assay type: functional; design: scale not given: the % may be the effect or the level left; conditions: time 3 day
# Pseudomonas aeruginosa [38] = test: Antibiofilm activity against 24 hrs preformed Pseudomonas aeruginosa PAO1 biofilm assessed as reduction in biofilm viability at 7.2 to 30.3 uM by TTC assay relative to control; assay type: functional; conditions: dose microM 7.2-30.3
# [39] = Aggregation property of the compound in water at 1 mg/ml by turbidimetric method; assay type: physicochemical; conditions: buffer
# Staphylococcus aureus [40] = test: Antibacterial activity against Staphylococcus aureus USA300 LAC infected in CD1 mouse assessed as dermonecrosis area at 7.5 mg/kg, sc administered at infection site measured after 3 days by caliper method (Rvb > 75 mm2); assay type: functional; conditions: time 3 day
# Pseudomonas aeruginosa [41] = test: Antibiofilm activity against 24 hrs preformed Pseudomonas aeruginosa PA14 biofilm assessed as reduction in biofilm viability at 7.2 to 30.3 uM by TTC assay relative to control; assay type: functional; conditions: dose microM 7.2-30.3
# [42] = Aggregation of the compound in human PBMC assessed as amorphous morphology at 50 ug/ml measured after 4 hrs by microscopic analysis; assay type: ADME, tissue-based; conditions: dose 50 µg/ml
# PBMC [43] = test: Immunomodulatory activity in human PBMC assessed as reduction in LPS-induced TNFalpha production at 25 ug/ml measured after overnight incubation by ELISA; assay type: functional, tissue-based; conditions: dose 25.0 µg/ml
# [44] = Aggregation property of the compound in RPMI medium with 1% FBS at 1 mg/ml by turbidimetric method; assay type: physicochemical
smiles,measurement,setting,value
CC[C@H](C)[C@@H]1NC(=O)[C@H](CCCNC(=N)N)NC(=O)[C@H](C(C)C)NC(=O)[C@H](C)NC(=O)[C@H](C(C)C)NC(=O)[C@H]([C@@H](C)CC)NC(=O)[C@H](CC(C)C)NC(=O)[C@H](CCCNC(=N)N)NC(=O)[C@H](C(C)C)NC(=O)CC[C@@H](C(N)=O)NC(=O)[C@H](CCCNC(=N)N)NC(=O)[C@H](CCCNC(=N)N)NC(=O)[C@H](Cc2c[nH]c3ccccc23)NC1=O (VRLIVAVRIWRRE-NH2; lactam N-13),MIC,Pseudomonas aeruginosa [1],30.3 µM
same,MIC,Acinetobacter baumannii [2],15.1 µM
same,Activity,PBMC [3],Active
same,MIC,Klebsiella pneumoniae [4],15.1 µM
same,Activity,Acinetobacter baumannii [5],70%
same,MIC,Acinetobacter baumannii [6],15.1 µM
same,Activity,Escherichia coli [7],70%
same,MBEC,Pseudomonas aeruginosa [8],38.8 µM
same,Activity,Klebsiella pneumoniae [9],70%
same,Activity,[10],35%
same,Activity,[11],Not Active
same,MIC,Staphylococcus aureus [12],15.1 µM
same,Activity,[13],Toxic
same,MIC,Escherichia coli [14],30.3 µM
same,MBEC,Escherichia coli [15],38.8 µM
same,Activity,PBMC [16],Active
same,"metabolised at 2 h, 20 ug/ml",Trypsin,30%
same,MBEC,Klebsiella pneumoniae [17],9.7 µM
same,MIC,Pseudomonas aeruginosa [18],30.3 µM
same,Activity,[19],30%
same,Activity,[20],Toxic
same,Activity,[21],Not Active
same,MBIC,Staphylococcus aureus [22],7.2 µM
same,MIC,Staphylococcus aureus [23],15.1 µM
same,Activity,Acinetobacter baumannii [24],70%
same,Activity,[25],35%
same,MBEC,Pseudomonas aeruginosa [26],38.8 µM
same,Activity,[27],Not Active
same,Activity,[28],Not Active
same,Activity,[29],Not Active
same,MBEC,Staphylococcus aureus [30],7.2 µM
same,MBEC,Acinetobacter baumannii [31],15.1 µM
same,MBEC,Staphylococcus aureus [32],9.7 µM
same,fold change (FC),Staphylococcus aureus [33],1000
same,MBIC,Staphylococcus aureus [34],7.2 µM
same,MBEC,Acinetobacter baumannii [35],15.1 µM
same,Activity,PBMC [36],inactive
same,Activity,Staphylococcus aureus [37],90%
same,Activity,Pseudomonas aeruginosa [38],70%
same,Activity,[39],Not Active
same,Activity,Staphylococcus aureus [40],5 mm2
same,Activity,Pseudomonas aeruginosa [41],70%
same,Activity,[42],Not Active
same,Activity,PBMC [43],Active
same,Activity,[44],Active
